# Measured values: PMC8201479, “Trisubstituted Pyrrolinones as Small-Molecule Inhibitors Disrupting the Protein–RNA Interaction of LIN28 and Let-7” (ACS Medicinal Chemistry Letters, 2021)
# Read-outs that look alike come from different tables or passages of the source.
# T1: LIN28–let-7 interaction (Homo sapiens, UniProt Q9H9Z2)
# T1 construct: Purified LIN28A (residues 16–187) was incubated at a concentration of 200 nM; His-tag (cleaved yes); made in house; host or cells: Escherichia coli BL21(DE3)
# T1 sequence (Q9H9Z2 16-187): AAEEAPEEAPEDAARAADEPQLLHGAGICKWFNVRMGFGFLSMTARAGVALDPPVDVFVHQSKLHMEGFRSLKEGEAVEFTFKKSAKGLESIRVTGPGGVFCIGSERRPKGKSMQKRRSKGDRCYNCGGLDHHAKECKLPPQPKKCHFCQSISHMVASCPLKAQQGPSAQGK
# T2: LIN28–let-7 complex (Homo sapiens, UniProt Q9H9Z2)
# T2 construct: Purified LIN28A (residues 16–187) was incubated at a concentration of 200 nM; His-tag (cleaved yes); made in house; host or cells: Escherichia coli BL21(DE3)
# T2 sequence (Q9H9Z2 16-187): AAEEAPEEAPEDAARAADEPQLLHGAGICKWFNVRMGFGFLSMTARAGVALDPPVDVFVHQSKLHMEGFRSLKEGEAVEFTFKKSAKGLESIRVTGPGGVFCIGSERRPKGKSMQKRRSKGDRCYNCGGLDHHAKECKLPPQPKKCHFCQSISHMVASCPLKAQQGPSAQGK
# T3: LIN28A (16-187), untagged (human, UniProt Q9H9Z2 16-187)
# T3 sequence: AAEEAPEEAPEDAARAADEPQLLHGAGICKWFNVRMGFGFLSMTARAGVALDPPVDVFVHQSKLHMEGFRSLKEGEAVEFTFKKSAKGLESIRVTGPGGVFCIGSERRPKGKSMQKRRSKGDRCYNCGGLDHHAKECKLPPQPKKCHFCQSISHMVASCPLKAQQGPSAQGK
# Experiments:
# LIN28–let-7 interaction [1] = target: T1, LIN28–let-7 interaction; assay: Fluorescence polarization (FP) assay, LIN28A (residues 16–187) and FAM-labeled preE-let-7f-1; format: binding
# Procedure: Protein expression and purification.
# 19 vector and overexpressed in Escherichia coli BL21(DE3). The culture was incubated at 37 °C until
# the absorbance at 600 nm (OD600) reached 0.5–0.7. IPTG was added to a final concentration of
# 300 µM, and overnight induction was performed at 18 °C. Cells were harvested by centrifugation.
# The bacterial pellet was resuspended in lysis buffer (50 mM NaH2PO4, pH 7.5, 300 mM NaCl,
# 0.1 mM PMSF) and lysed using a Microfluidizer (Microfluidics) . A fresh portion of 0.1 mM PMSF
# and Triton X-100 (1% final concentration) were added. The lysate was cleared by ultra centrifugation
# at 30000 xg and 4 °C for 1 h. The protein purification was performed using immobilized nickel
# 300 mM NaCl and 5 % glycerol. Gradient elution was performed with a maximum of 0.5 M imidazole.
# Subsequently, the affinity tag was cleaved using His6 -TEV-protease and the protease and unspecific
# binders were eliminated by a second nickel affinity chromatography. After protein concentration
# LIN28A containing fractions were concentrated and applied to a High Load Superdex 75 pg 16/600
# column (GE Healthcare) with gel-filtration buffer (30 mM NaH2PO4, pH 7.5, 50 mM NaCl, 5%
# glycerol, 2 mM β-ME). The purified protein was concentrated and stored at -80 °C until further
# Fluorescence polarization. The fluorescence polarization assay was performed in black low volume
# IC50 measurements were performed with three technical
# minutes with compound concentrations ranging from 0.3 nM to 100 µM in FP assay buffer (20 mM
# Tris, pH 7, 100 mM NaCl, 5 mM MgCl2, 2 mM glutathione (reduced), 0.1 % NP-40). Subsequently,
# FAM-labeled preE-let-7f-1 (mus musculus) ([…]-
# FAM, synthesized by IDT) was added to a final concentration of 2 nM. Fluorescence polarization
# (§1) was detected after incubation at room temperature using a TECAN Spark plate reader. Half maximal
# inhibitory concentrations (IC50) were determined using GraphPad Prism 7. […]
# LIN28–let-7 interaction [2] = target: T1, LIN28–let-7 interaction; assay: as above; format: binding; conditions: Table 1; quadruplicate; starting from 30 μM, eight concentrations; extrapolated based on the observed IC50 curves; read-out: IC50, LIN28–let-7 inhibitory activity
# LIN28–let-7 complex = target: T2, LIN28–let-7 complex; assay: Electrophoretic mobility shift assay (EMSA); format: binding; conditions: compound concentrations up to 75 µM
# Procedure: as §1
# inhibitory concentrations (IC50) were determined using GraphPad Prism 7.
# Compound screening. High throughput screening was performed in low volume 384 well plates
# (Corning 4514) with 30 µM compound, 40 nM LIN28A, and 2 nM preE-let-7f-1-FAM in FP assay
# buffer. Compounds were transferred with an ECHO 520 liquid handler and protein and RNA were
# added with a multidrop dispenser. Protein and RNA were added stepwise with a 30 min incubation
# period in between. FP was detected after a final incubation of 15 min with an Envision plate reader
# and fluorescence was measured with a Paradigm plate reader. A reaction without LIN28 served as a
# negative control and one without compound was used as a positive control. The software Quattro
# Workflow (Quattro Research GmbH) was used for the analysis of screening data.
# Electrophoretic mobility shift assay. EMSA was used as a secondary assay to validate FP-assay hit
# molecules. Purified LIN28A (residues 16–187) was incubated with compound and 5 U recombinant
# ribonuclease inhibitor (Takara Bio) in EMSA reaction buffer (50 mM Tris (pH 7.5), 100 mM NaCl,
# 10 mM β-mercaptoethanol, 50 µM ZnCl2, 2 % DMSO, 0.01 % Tween 20, 12 % glycerol) for 2 hours
# at room temperature. Subsequently, preE-let-7f-1-Cy3 (mus musculus) (GGGGUAGUGAUUUUAC
# CCUGUUUAGGAGAU-Cy3, purchased from IDT) was added to a final concentration of 5 nM and
# a reaction volume of 50 µL. The final concentration of LIN28A was 10 nM and compound
# concentrations up to 75 µM were used. The reaction mixtures were incubated for a further 15 minutes
# and 10 µL loading dye (40 % glycerol, 1.5x TAE) was added. 10 µL of each reaction was separated
# in an 8 % polyacrylamide TAE gel at 4 °C and 220 V for 1 h using 0.25x TAE as running buffer. Cy3
# fluorescence was detected with a ChemiDoc M P (Bio-Rad) and 2 minutes of exposure time.
# Thermal shift assay. Thermal stability of the cold shock domain construct LIN28 A (residues 16–
# 126) with and without compound was monitored using a NanoTemper Prometheus NT.48 nano -
# LIN28 [3] = system: LIN28; design: method as in PMID 27668966; conditions: reported value; cited from earlier work
# LIN28 [4] = system: LIN28; design: method as in PMID 27548809; conditions: reported value; read-out: IC50 (ELISA); cited from earlier work
# [5] = target: T3, LIN28A (16-187), untagged; assay: competition (fluorescence polarization); competes with 2 nM FAM-preE-let-7f-1; FP: 20 mM Tris pH 7, 100 mM NaCl, 5 mM MgCl2, 2 mM GSH, 0.1% NP-40 (200 nM LIN28A, 2 nM RNA in IC50 assays); EMSA: 50 mM Tris pH 7.5, 100 mM NaCl, 10 mM beta-ME, 50 uM ZnCl2, 2% DMSO, 0.01% Tween 20, 12% glycerol, 2 h, room temperature; conditions: protein: recombinant; tags: none (His-tag cleaved by TEV); stem loop
molecule,measurement,setting,value
O=C(O)c1cccc(N2C(=O)C(O)=C(C(=O)c3ccc(Br)cc3)C2c2ccc(-c3nccs3)cc2)c1 (stereo not shown) [C903],activity in the FP assay,LIN28–let-7 interaction [1],FP-inactive
same,IC50,LIN28–let-7 interaction [2],> 100 µM
same,inhibition of the LIN28–let-7 complex in EMSA,LIN28–let-7 complex,did not show activity
"CC1(C)Oc2cc(N3CCN(C(=O)OCc4ccccc4)CC3)c([N+](=O)[O-])cc2-c2c1cnn2-c1ccc(C(=O)O)cc1 [SB1301, reference compound]",IC50,LIN28 [3],4 µM
same,IC50,"LIN28–let-7 interaction [1]; text and figures, C-labels = library sample, PH-labels = in-house resynthesized, read-out: IC50 in the FP assay",27 µM
CC(=O)N(C)c1cccc(-c2ccc3nnc(C)n3n2)c1 [compound 1632],IC50,LIN28 [4],8 µM
"GGGGUAGUGAUUUUACCCUGUUUAGGAGAU (structured_RNA) [preE-let-7f-1, unlabeled]",IC50,[5],0.055 µM
